# Values quoted from earlier work in patent US20090274673A1, “COMPOSITION FOR TOPICAL TREATMENT OF ACNE” (priority 2008, published 2009).
# How the values were obtained:
# Candida albicans = settings: against Candida albicans (a yeast-like fungus)
# [1] = test system: Staphylococcus epidermidis; settings: against Staphylococcus epidermidis
# Bacillus thuringiensis = settings: agar plate diffusion
# protein synthesis = settings: prokaryotes versus eukaryotes
# Saccharomyces cerevisiae = settings: against Saccharomyces cerevisiae
# Proteus vulgaris = settings: agar plate diffusion
# Staphylococcus aureus = settings: agar plate diffusion
# [2] = test system: hyper-permeable strains of Escherichia coli SC10909 and BAS847; settings: agar plate diffusion; hyper-permeable E. coli SC10909 and BAS847
# HIV = settings: virus incubated with zinc acetate
# [3] = test system: species of Fusarium, Gerlacia, Penicillium, and Aspergillus
compound,measurement,setting,value
C/C(=C/C=C/C=C/C(C)C(=O)O)NC(=O)CC(O)\C(C)=C/C=C\C=C(C)\C=C\C=C/C=C/CNC(=O)C(O)CC(C)C (centres unmarked) [bacillaene],inhibitory effect,Candida albicans,ineffective
same,growth inhibition,Streptomyces avermitilis,inhibit the growth
same,inhibitory effect,[1],ineffective
same,inhibitory effect,Bacillus thuringiensis,moderately potent
same,selectivity of protein synthesis inhibition,protein synthesis,inhibiting protein synthesis only in prokaryotes and not in eukaryotes
same,inhibitory effect,Saccharomyces cerevisiae,ineffective
same,inhibitory effect,Proteus vulgaris,moderately potent
same,inhibitory effect,Staphylococcus aureus,moderately potent
same,inhibitory effect,[2],potent
CC(=O)[O-].CC(=O)[O-].[Zn+2] [zinc acetate],HIV infectivity,HIV,reduced
Iturin A,growth inhibition,[3],inhibits the growth
